Literature values, collected in US20230149366A1, “SOLID DOSAGE FORMS OF TAFAMIDIS” (Nuray Chemicals Private Limited, priority 2021, published 2023).

Conditions: Vyndaqel European Public assessment report

O=C(O)c1ccc2nc(-c3cc(Cl)cc(Cl)c3)oc2c1 [tafamidis, 2-(3,5-dichlorophenyl)-1,3-benzoxazole-6-carboxylic acid]
Solubility in vehicles commonly used in formulating soft gelatin capsules: poor solubility | Gel formation in hard gelatin capsule with standard excipients (upon contact with aqueous vehicles): formed a rigid gel structure
